Read-outs that look alike come from different tables or passages of the source. Starred links: 1 amine or outer side, 2 acyl side, 3 side chain; linkers in the order of their positions; H or OH if unused. Non-standard residues stand in square brackets, D forms with d. Residues, ends and D or L forms follow the SMILES beside them. Groups on a side chain read outwards from the residue. *: point of attachment. C20 diacid = O=C(O)CCCCCCCCCCCCCCCCCCC(=O)*; Pro(4S-NH2) = N[C@@H]1CN[C@H](C(=O)O)C1; γGlu = O=C(O)[C@H](CCC(=O)[*:2])N[*:1]; NMeI = CC[C@H](C)[C@H](NC)C(=O)O; Nle = CCCC[C@H](N)C(=O)O; AEEA = NCCOCCOCC(=O)O; Aib = CC(C)(N)C(=O)O
Legend:
[1] = biological target: T1, hCRHR2 (Homo sapiens, UniProt Q13324); assay: HTRF cAMP assay, determination of hCRHR2 potency (peptide libraries 5 conc., purified peptides 11 conc.); type: cell-based
T1 sequence (Q13324 1-411): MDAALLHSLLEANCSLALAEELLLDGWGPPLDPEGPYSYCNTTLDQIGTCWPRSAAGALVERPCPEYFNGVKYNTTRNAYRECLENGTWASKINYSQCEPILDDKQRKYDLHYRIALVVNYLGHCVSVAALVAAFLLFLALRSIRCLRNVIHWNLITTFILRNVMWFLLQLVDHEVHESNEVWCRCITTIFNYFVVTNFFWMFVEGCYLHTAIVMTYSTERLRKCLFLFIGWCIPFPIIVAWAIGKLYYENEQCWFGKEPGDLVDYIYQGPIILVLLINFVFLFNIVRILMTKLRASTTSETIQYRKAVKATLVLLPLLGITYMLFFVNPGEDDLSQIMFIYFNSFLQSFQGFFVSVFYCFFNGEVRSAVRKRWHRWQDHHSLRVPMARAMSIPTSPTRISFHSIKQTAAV
Summary of the method: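 EC50 derived by variable-slope sigmoid regression of FRET-based cAMP data; cellular cAMP displaced d2-labelled tracer from cryptate anti-cAMP antibody. Stable human CRHR2 CHO-K1 suspension cells, revived from frozen stocks just before the run.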

[2] = biological target: T2, hCRHR1 (Homo sapiens, UniProt P34998); assay: HTRF cAMP assay, determination of hCRHR1 potency (peptide libraries 5 conc., purified peptides 11 conc.); type: cell-based
T2 sequence (P34998 24-415): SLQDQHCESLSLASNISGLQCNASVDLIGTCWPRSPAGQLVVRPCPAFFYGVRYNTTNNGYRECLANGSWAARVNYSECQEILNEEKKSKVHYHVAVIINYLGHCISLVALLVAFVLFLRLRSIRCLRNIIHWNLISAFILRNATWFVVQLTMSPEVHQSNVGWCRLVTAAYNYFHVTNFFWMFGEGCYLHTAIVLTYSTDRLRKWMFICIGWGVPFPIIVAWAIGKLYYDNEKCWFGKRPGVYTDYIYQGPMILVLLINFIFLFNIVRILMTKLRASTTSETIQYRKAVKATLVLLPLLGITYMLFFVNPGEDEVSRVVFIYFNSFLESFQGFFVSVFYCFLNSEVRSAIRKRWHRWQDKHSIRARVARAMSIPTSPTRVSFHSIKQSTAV
Summary of the method: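 Cellular cAMP was read by time-resolved FRET between d2-labelled cAMP and cryptate anti-cAMP antibody. The cells were freshly thawed suspension CHO-K1 cells stably expressing human CRHR1.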

[3] = Table 3, matched molecular pairs X^38 L vs Nle, peptide library of Example 4, read-out: hCRHR2 pEC50 (converted)
[4] = Table 3, matched molecular pairs X^38 L vs Nle, peptide library of Example 4, read-out: hCRHR1 pEC50 (converted)

SMILES: CCCC[C@H](NC(=O)[C@@H](NC(=O)[C@H](CCC(=O)O)NC(=O)[C@H](C)NC(=O)[C@H](CC(N)=O)NC(=O)[C@@H](NC(=O)[C@H](CCCCNC(=O)COCCOCCNC(=O)COCCOCCNC(=O)CC[C@H](NC(=O)CC[C@H](NC(=O)CCCCCCCCCCCCCCCCCCC(=O)O)C(=O)O)C(=O)O)NC(=O)[C@H](C)NC(=O)[C@H](CCCNC(=N)N)NC(=O)[C@H](CCC(=O)O)NC(=O)[C@H](CCCNC(=N)N)NC(=O)[C@H](C)NC(=O)[C@H](C)NC(=O)[C@H](CCCNC(=N)N)NC(=O)[C@H](C)NC(=O)[C@H](CCCNC(=N)N)NC(=O)[C@H](C)NC(=O)[C@H](CCC(N)=O)NC(=O)[C@H](CCC(=O)O)NC(=O)[C@H](CC(C)C)NC(=O)[C@H](CC(C)C)NC(=O)[C@@H](NC(=O)[C@H](CCC(N)=O)NC(=O)[C@H](CC(C)C)NC(=O)[C@H](CC(C)C)NC(=O)CNC(=O)[C@@H](NC(=O)[C@@H]1CCCN1C(=O)[C@@H](NC(=O)[C@H](CC(=O)O)NC(=O)[C@H](CC(C)C)NC(=O)[C@H](CO)NC(=O)[C@H](CC(C)C)NC(=O)[C@@H](NC(=O)[C@@H](N)[C@@H](C)CC)C(C)C)C(C)C)[C@@H](C)CC)[C@@H](C)CC)[C@@H](C)O)[C@@H](C)CC)C(=O)N[C@@H](C)C(=O)N[C@@H](CCC(=O)O)C(=O)N[C@H](C(N)=O)C(C)C [compound 67] (H-IVLSLDVPIGLLQILLEQARARAARERAK([AEEA-AEEA-γGlu-γGlu-C20 diacid])TNAEI[Nle]AEV-NH2)
- EC50 [1]: 0.126 nM
- EC50 [2]: 2000 nM

SMILES: CC[C@H](C)[C@H](N)C(=O)N[C@H](C(=O)N[C@@H](CC(C)C)C(=O)N[C@@H](CO)C(=O)N[C@@H](CC(C)C)C(=O)N[C@@H](CC(=O)O)C(=O)N[C@H](C(=O)N1CCC[C@H]1C(=O)N[C@H](C(=O)NCC(=O)N[C@@H](CC(C)C)C(=O)N[C@@H](CC(C)C)C(=O)N[C@@H](CCC(N)=O)C(=O)N[C@H](C(=O)N[C@@H](CC(C)C)C(=O)N[C@@H](CC(C)C)C(=O)N[C@@H](CCC(=O)O)C(=O)N[C@@H](CCC(N)=O)C(=O)N[C@@H](C)C(=O)N[C@@H](CCCNC(=N)N)C(=O)N[C@@H](C)C(=O)N[C@@H](CCC(N)=O)C(=O)N[C@@H](C)C(=O)N[C@@H](CCC(N)=O)C(=O)N[C@@H](CCCNC(=N)N)C(=O)N[C@@H](CCC(=O)O)C(=O)N[C@@H](CCC(N)=O)C(=O)N[C@@H](C)C(=O)N[C@@H](CCCCNC(=O)COCCOCCNC(=O)COCCOCCNC(=O)CC[C@H](NC(=O)CC[C@H](NC(=O)CCCCCCCCCCCCCCCCCCC(=O)O)C(=O)O)C(=O)O)C(=O)N[C@H](C(=O)N[C@@H](CC(N)=O)C(=O)N[C@@H](C)C(=O)N[C@@H](CCC(=O)O)C(=O)N[C@H](C(=O)N[C@@H](CC(C)C)C(=O)N[C@@H](C)C(=O)N[C@@H](CCC(=O)O)C(=O)N[C@H](C(N)=O)C(C)C)[C@@H](C)CC)[C@@H](C)O)[C@@H](C)CC)[C@@H](C)CC)C(C)C)C(C)C [SEQ ID NO: 31] (H-IVLSLDVPIGLLQILLEQARAQAQREQAK([AEEA-AEEA-γGlu-γGlu-C20 diacid])TNAEILAEV-NH2)
- EC50 [1, 3]: 0.794 nM
- EC50 [2, 4]: 3980 nM

SMILES: CCCC[C@H](NC(=O)[C@@H](NC(=O)[C@H](CCC(=O)O)NC(=O)[C@H](C)NC(=O)[C@H](CC(N)=O)NC(=O)[C@@H](NC(=O)[C@H](CCCCNC(=O)COCCOCCNC(=O)COCCOCCNC(=O)CC[C@H](NC(=O)CC[C@H](NC(=O)CCCCCCCCCCCCCCCCCCC(=O)O)C(=O)O)C(=O)O)NC(=O)[C@H](C)NC(=O)[C@H](CCC(N)=O)NC(=O)[C@H](CCC(=O)O)NC(=O)[C@H](CCCNC(=N)N)NC(=O)[C@H](C)NC(=O)[C@@H](NC(=O)[C@H](CCCNC(=N)N)NC(=O)[C@H](C)NC(=O)[C@H](CCCNC(=N)N)NC(=O)[C@H](C)NC(=O)[C@H](CCC(N)=O)NC(=O)[C@H](CCC(=O)O)NC(=O)[C@H](CC(C)C)NC(=O)[C@H](CC(C)C)NC(=O)[C@@H](NC(=O)[C@H](CCC(N)=O)NC(=O)[C@H](CC(C)C)NC(=O)[C@H](CC(C)C)NC(=O)CNC(=O)[C@@H](NC(=O)[C@@H]1C[C@H](N)CN1C(=O)[C@@H](NC(=O)[C@H](CC(=O)O)NC(=O)[C@H](CC(C)C)NC(=O)[C@H](CO)NC(=O)[C@H](CC(C)C)NC(=O)[C@@H](NC(=O)[C@@H](N)[C@@H](C)CC)C(C)C)C(C)C)[C@@H](C)CC)[C@@H](C)CC)C(C)C)[C@@H](C)O)[C@@H](C)CC)C(=O)N[C@@H](C)C(=O)N[C@@H](CCC(=O)O)C(=O)N[C@H](C(N)=O)C(C)C [compound 77] (H-IVLSLDV[Pro(4S-NH2)]IGLLQILLEQARARVAREQAK([AEEA-AEEA-γGlu-γGlu-C20 diacid])TNAEI[Nle]AEV-NH2)
- EC50 ([1]; library peptides, matched molecular pairs L vs Nle in position X^38, read-out: Potency hCRHR2 pEC50 (converted)): 0.501 nM
- EC50 ([2]; library peptides, matched molecular pairs L vs Nle in position X^38, read-out: Potency hCRHR1 pEC50 (converted)): 3.16 nM

SMILES: CCCC[C@H](NC(=O)[C@@H](NC(=O)[C@H](CCC(=O)O)NC(=O)C(C)(C)NC(=O)[C@H](CC(N)=O)NC(=O)[C@@H](NC(=O)[C@H](CCCCNC(=O)COCCOCCNC(=O)COCCOCCNC(=O)CC[C@H](NC(=O)CC[C@H](NC(=O)CCCCCCCCCCCCCCCCCCC(=O)O)C(=O)O)C(=O)O)NC(=O)[C@H](C)NC(=O)[C@H](CCC(N)=O)NC(=O)[C@H](CCC(=O)O)NC(=O)[C@H](CCCNC(=N)N)NC(=O)[C@H](C)NC(=O)[C@H](C)NC(=O)[C@H](CCCNC(=N)N)NC(=O)[C@H](C)NC(=O)[C@H](CCCNC(=N)N)NC(=O)[C@H](C)NC(=O)[C@H](CCC(N)=O)NC(=O)[C@H](CCCNC(=N)N)NC(=O)[C@H](CC(C)C)NC(=O)[C@H](CC(C)C)NC(=O)[C@@H](NC(=O)[C@H](CCC(N)=O)NC(=O)[C@H](CC(C)C)NC(=O)[C@H](CC(C)C)NC(=O)CNC(=O)[C@@H](NC(=O)[C@@H]1CCCN1C(=O)[C@@H](NC(=O)[C@H](CC(=O)O)NC(=O)[C@H](CC(C)C)NC(=O)[C@H](CO)NC(=O)[C@H](CC(C)C)NC(=O)[C@@H](NC(=O)[C@@H](NC)[C@@H](C)CC)C(C)C)C(C)C)[C@@H](C)CC)[C@@H](C)CC)[C@@H](C)O)[C@@H](C)CC)C(=O)N[C@@H](C)C(=O)N[C@@H](CCC(=O)O)C(=O)N[C@H](C(N)=O)C(C)C [compound 198] (H-[NMeI]VLSLDVPIGLLQILLRQARARAAREQAK([AEEA-AEEA-γGlu-γGlu-C20 diacid])TN[Aib]EI[Nle]AEV-NH2)
- EC50 ([1]; Table 4, library peptides having X^38 = Nle, read-out: hCRHR2 pEC50 (converted)): 0.0316 nM
- EC50 ([2]; Table 4, library peptides having X^38 = Nle, read-out: hCRHR1 pEC50 (converted)): 63100 nM

SMILES: CCCC[C@H](NC(=O)[C@@H](NC(=O)[C@H](CCC(=O)O)NC(=O)[C@H](C)NC(=O)[C@H](CC(N)=O)NC(=O)[C@@H](NC(=O)[C@H](CCCCNC(=O)COCCOCCNC(=O)COCCOCCNC(=O)CC[C@H](NC(=O)CC[C@H](NC(=O)CCCCCCCCCCCCCCCCCCC(=O)O)C(=O)O)C(=O)O)NC(=O)[C@H](C)NC(=O)[C@H](CCC(N)=O)NC(=O)[C@H](CCC(=O)O)NC(=O)[C@H](CCCNC(=N)N)NC(=O)[C@H](C)NC(=O)[C@H](C)NC(=O)[C@H](CCCNC(=N)N)NC(=O)[C@H](C)NC(=O)[C@H](CCCNC(=N)N)NC(=O)[C@H](C)NC(=O)[C@H](CCC(N)=O)NC(=O)[C@H](CCC(=O)O)NC(=O)[C@H](CC(C)C)NC(=O)[C@H](CC(C)C)NC(=O)[C@@H](NC(=O)[C@H](CCC(N)=O)NC(=O)[C@H](CC(C)C)NC(=O)[C@H](CC(C)C)NC(=O)CNC(=O)[C@@H](NC(=O)[C@@H]1CCCN1C(=O)[C@@H](NC(=O)[C@H](CC(=O)O)NC(=O)[C@H](CC(C)C)NC(=O)[C@H](CO)NC(=O)[C@H](CC(C)C)NC(=O)[C@@H](NC(=O)[C@@H](N)[C@@H](C)CC)C(C)C)C(C)C)[C@@H](C)CC)[C@@H](C)CC)[C@@H](C)O)[C@@H](C)CC)C(=O)N[C@@H](C)C(=O)N[C@@H](CCC(=O)O)C(=O)N[C@H](C(N)=O)C(C)C [SEQ ID NO: 45] (H-IVLSLDVPIGLLQILLEQARARAAREQAK([AEEA-AEEA-γGlu-γGlu-C20 diacid])TNAEI[Nle]AEV-NH2)
- EC50 [1, 3]: 0.251 nM
- Selectivity ratio (hCRHR1/ hCRHR2) ([1]; Table 5): 107
- EC50 ([1]; Table 5, purified peptides, read-out: hCRHR2 EC50): 0.52 nM
- EC50 [2, 4]: 200 nM
